Experiments:
[1] = target: RAC-beta serine/threonine-protein kinase (Homo sapiens) (UniProt P31751)
[2] = target: Dual specificity tyrosine-phosphorylation-regulated kinase 2 (Homo sapiens) (UniProt Q92630)
[3] = target: T1, Ephrin type-B receptor 4 (Homo sapiens) (UniProt P54760)
T1 sequence (whole entry): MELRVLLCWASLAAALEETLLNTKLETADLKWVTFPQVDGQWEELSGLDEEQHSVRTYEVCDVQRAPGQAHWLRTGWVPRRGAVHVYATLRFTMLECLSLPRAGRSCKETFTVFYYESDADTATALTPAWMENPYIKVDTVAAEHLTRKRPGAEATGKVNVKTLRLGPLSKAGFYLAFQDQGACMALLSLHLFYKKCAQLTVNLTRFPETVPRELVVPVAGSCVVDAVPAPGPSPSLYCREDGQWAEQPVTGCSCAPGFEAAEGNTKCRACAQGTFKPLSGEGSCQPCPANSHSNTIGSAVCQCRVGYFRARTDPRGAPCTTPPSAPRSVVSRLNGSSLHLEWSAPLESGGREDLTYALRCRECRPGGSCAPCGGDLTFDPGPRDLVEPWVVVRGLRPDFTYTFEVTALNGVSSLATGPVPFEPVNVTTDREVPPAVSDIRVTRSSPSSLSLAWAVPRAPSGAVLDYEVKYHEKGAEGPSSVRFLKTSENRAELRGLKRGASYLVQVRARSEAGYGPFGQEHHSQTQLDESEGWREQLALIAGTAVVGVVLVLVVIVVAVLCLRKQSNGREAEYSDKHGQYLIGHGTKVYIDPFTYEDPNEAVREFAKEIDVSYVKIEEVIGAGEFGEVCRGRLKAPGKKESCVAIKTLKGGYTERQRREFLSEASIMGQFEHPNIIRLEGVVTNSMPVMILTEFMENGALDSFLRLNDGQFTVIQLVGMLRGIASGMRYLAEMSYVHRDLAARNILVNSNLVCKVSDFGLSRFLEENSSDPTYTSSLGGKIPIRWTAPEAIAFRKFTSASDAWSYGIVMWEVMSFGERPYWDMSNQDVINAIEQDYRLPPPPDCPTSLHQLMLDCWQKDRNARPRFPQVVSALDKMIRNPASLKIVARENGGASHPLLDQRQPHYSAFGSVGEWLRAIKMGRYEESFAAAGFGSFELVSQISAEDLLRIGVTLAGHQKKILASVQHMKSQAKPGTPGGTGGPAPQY

[4] = tested on: Mast/stem cell growth factor receptor Kit (Homo sapiens), P10721 [D816H]
[5] = target: Serine/threonine-protein kinase 10 (Homo sapiens) (UniProt O94804)
[6] = target: Leukocyte tyrosine kinase receptor (Homo sapiens) (UniProt P29376)
[7] = target: Serine/threonine-protein kinase MARK2 (Homo sapiens) (UniProt Q7KZI7)
[8] = target: Phosphatidylinositol 3-kinase C2 domain-containing subunit gamma (Homo sapiens) (UniProt O75747)
[9] = target: Phosphatidylinositol 4-phosphate 5-kinase type-1 gamma (Homo sapiens) (UniProt O60331)
[10] = target: Serine/threonine-protein kinase PLK1 (Homo sapiens) (UniProt P53350)
[11] = target: STE20/SPS1-related proline-alanine-rich protein kinase (Homo sapiens) (UniProt Q9UEW8)
[12] = target: T2, TGF-beta receptor type-1 (Homo sapiens) (UniProt P36897)
T2 sequence (whole entry): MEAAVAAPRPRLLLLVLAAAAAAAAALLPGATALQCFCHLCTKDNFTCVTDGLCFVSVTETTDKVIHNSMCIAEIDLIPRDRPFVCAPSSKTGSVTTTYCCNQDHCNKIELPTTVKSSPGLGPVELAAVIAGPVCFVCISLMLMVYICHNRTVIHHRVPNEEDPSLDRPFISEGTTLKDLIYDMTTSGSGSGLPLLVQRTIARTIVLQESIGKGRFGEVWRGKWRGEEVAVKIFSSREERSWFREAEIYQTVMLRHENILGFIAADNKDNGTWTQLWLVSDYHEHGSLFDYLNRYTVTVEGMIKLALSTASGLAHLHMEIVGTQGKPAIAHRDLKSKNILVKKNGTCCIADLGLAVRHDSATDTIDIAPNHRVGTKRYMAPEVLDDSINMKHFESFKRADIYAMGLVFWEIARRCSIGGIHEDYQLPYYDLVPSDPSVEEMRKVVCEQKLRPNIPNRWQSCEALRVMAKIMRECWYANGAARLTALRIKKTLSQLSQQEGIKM

[13] = target: TRAF2 and NCK-interacting protein kinase (Homo sapiens) (UniProt Q9UKE5)
[14] = target: Sigma non-opioid intracellular receptor 1 (Homo sapiens, UniProt Q99720); details: Compound concentration 10.0 uM
[15] = Compound concentration 1000.0 nM
[16] = Compound concentration 100.0 nM

RAC-beta serine/threonine-protein kinase (Homo sapiens), sequence (P31751 whole entry): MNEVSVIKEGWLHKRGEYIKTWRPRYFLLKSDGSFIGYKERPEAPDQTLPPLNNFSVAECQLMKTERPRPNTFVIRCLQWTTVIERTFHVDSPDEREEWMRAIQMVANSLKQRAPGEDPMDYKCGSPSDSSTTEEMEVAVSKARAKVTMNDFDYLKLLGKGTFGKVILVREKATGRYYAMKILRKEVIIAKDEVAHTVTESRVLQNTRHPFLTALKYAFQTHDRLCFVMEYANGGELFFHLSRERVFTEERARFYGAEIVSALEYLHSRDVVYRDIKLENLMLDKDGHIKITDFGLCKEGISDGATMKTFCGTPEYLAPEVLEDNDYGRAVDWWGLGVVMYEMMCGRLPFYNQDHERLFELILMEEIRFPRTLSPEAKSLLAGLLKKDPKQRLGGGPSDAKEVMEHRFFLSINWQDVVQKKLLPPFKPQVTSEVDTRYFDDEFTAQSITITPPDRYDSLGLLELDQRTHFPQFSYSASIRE
Serine/threonine-protein kinase MARK2 (Homo sapiens), sequence (Q7KZI7 whole entry, the tested form may be a part): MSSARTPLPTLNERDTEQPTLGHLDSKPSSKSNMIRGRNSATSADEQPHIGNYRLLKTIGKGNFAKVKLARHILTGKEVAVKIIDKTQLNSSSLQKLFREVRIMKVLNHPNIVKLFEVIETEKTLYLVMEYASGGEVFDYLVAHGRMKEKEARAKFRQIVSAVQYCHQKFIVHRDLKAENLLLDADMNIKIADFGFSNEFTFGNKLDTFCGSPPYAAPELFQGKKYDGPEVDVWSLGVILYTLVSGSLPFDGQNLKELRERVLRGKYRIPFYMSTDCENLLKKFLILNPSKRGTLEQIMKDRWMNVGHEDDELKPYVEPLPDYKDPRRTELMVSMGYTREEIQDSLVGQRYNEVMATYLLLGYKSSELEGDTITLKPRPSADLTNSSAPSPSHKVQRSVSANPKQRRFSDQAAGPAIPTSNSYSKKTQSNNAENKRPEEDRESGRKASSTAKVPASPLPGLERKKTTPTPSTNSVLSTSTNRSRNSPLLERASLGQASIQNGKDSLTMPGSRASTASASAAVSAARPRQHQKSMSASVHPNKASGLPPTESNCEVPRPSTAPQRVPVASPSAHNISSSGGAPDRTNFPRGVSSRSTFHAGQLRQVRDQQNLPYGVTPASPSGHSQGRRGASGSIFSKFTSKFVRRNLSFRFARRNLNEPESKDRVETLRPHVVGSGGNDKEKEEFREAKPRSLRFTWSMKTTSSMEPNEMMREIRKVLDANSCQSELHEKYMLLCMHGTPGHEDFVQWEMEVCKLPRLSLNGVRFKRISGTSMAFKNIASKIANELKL
Leukocyte tyrosine kinase receptor (Homo sapiens), sequence (P29376 whole entry): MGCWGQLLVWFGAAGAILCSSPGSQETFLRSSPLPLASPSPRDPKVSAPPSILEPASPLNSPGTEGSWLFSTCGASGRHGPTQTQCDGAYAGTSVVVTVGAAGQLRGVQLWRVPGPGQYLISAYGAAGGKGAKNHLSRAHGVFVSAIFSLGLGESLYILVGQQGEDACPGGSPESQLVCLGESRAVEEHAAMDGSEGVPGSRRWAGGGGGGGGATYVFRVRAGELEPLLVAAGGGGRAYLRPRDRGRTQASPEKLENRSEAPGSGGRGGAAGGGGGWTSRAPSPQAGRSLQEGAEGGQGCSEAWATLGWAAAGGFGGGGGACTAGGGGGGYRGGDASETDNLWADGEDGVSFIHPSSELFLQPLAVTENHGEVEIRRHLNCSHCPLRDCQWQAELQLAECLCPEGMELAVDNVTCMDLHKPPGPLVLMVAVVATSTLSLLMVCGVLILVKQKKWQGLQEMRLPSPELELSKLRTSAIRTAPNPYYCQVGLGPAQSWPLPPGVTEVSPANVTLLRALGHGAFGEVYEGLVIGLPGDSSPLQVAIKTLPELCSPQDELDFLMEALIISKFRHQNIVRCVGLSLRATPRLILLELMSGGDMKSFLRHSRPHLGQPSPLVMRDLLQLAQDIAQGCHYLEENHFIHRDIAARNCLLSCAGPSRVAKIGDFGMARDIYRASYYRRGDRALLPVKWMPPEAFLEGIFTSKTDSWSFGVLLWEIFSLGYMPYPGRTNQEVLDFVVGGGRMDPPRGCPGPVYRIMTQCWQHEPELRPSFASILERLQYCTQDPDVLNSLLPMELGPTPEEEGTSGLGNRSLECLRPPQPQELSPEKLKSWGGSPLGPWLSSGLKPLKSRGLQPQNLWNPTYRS
Mast/stem cell growth factor receptor Kit (Homo sapiens), P10721 [D816H], sequence (P10721 whole entry D816H): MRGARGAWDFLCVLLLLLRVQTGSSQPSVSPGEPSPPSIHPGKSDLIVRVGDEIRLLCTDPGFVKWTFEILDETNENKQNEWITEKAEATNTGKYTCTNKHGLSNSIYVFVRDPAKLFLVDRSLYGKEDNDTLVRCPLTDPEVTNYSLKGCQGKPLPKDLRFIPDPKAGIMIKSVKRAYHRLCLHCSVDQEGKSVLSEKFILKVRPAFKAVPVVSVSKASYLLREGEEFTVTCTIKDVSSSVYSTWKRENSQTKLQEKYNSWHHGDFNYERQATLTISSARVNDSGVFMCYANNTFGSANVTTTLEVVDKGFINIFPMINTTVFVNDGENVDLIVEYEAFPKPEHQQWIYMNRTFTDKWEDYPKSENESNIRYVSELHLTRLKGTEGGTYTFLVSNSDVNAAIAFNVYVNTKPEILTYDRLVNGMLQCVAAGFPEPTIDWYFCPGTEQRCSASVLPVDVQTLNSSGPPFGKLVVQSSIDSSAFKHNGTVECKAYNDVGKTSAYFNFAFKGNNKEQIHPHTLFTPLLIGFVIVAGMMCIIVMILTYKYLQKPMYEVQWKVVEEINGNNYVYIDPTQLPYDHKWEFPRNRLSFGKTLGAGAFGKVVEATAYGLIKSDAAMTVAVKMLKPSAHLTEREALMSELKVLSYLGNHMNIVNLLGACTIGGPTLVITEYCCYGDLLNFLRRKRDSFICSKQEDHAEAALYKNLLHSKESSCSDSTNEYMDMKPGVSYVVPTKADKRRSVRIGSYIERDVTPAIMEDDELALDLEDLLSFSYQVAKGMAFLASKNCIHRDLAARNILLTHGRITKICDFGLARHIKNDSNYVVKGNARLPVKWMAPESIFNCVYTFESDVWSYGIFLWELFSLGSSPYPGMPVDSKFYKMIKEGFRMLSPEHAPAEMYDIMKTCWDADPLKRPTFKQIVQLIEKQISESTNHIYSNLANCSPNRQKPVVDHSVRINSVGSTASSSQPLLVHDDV
TRAF2 and NCK-interacting protein kinase (Homo sapiens), sequence (Q9UKE5 whole entry, looked up): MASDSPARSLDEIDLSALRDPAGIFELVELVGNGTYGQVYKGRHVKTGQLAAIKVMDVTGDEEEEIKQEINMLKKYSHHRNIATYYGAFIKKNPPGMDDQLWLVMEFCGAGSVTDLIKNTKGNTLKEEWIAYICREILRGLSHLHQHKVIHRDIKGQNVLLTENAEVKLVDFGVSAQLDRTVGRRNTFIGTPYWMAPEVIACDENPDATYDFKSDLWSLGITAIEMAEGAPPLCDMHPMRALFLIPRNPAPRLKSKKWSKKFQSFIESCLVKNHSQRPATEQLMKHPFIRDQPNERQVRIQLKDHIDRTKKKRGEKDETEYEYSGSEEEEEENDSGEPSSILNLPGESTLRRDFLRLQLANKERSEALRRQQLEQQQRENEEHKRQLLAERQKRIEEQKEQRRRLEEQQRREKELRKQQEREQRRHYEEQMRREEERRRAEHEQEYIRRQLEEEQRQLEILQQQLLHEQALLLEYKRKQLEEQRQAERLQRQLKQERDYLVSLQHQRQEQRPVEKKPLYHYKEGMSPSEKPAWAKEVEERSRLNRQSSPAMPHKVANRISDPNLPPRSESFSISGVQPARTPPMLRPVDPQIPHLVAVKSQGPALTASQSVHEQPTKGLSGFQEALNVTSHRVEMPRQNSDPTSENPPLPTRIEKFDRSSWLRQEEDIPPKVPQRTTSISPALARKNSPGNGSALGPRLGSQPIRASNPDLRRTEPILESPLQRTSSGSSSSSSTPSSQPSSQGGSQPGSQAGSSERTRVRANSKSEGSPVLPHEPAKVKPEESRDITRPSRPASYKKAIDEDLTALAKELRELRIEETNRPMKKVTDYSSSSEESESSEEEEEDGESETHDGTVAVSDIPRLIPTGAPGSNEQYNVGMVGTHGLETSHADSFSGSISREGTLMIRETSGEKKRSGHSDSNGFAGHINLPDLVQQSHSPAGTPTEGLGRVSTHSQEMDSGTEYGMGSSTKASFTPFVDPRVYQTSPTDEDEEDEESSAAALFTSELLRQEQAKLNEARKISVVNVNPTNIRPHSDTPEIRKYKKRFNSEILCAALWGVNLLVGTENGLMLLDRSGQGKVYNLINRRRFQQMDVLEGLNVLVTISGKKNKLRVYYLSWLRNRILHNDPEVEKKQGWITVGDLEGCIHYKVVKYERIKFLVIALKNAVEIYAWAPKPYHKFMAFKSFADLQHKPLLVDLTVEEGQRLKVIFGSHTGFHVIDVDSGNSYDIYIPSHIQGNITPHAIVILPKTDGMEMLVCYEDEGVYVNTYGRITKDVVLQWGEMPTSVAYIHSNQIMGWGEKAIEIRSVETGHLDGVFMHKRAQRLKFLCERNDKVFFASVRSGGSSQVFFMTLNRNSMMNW
Dual specificity tyrosine-phosphorylation-regulated kinase 2 (Homo sapiens), sequence (Q92630 whole entry): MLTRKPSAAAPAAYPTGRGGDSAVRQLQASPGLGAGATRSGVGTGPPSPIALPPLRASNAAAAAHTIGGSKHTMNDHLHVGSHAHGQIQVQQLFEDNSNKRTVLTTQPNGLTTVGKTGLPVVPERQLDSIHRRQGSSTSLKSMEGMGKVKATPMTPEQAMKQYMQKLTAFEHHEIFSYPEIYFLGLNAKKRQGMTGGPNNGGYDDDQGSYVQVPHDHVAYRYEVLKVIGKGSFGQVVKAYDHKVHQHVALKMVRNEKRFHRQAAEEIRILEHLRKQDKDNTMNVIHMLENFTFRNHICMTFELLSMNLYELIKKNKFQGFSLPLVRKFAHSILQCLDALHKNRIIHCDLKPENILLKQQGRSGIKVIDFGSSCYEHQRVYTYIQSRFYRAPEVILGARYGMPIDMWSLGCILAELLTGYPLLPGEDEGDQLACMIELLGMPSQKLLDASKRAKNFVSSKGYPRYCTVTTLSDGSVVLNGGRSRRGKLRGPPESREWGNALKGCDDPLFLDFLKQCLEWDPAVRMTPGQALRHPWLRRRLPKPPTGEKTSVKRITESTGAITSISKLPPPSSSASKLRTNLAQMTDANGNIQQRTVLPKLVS

Molecule C[C@@H]1CN(c2cc(-c3nn(C)c4ccc(OC5(C)CC5)cc34)ncn2)C[C@H](C)O1 [MLi-2-NC] has a residual activity [1, 15] of 89%, a residual activity [2, 15] of 83% and a residual activity [3, 15] of 100%. The residual activity [4, 15] was 64%, the residual activity [5, 15] was 91% and the residual activity [6, 15] was 100%. For the same molecule, the residual activity [7, 15] was 89%, the residual activity [8, 15] was 100% and the residual activity [9, 15] was 90%. For the same molecule, the residual activity [10, 15] was 74%, the residual activity [11, 15] was 70% and the residual activity [12, 15] was 89%. The residual activity [13, 15] was 80% and the inhibition [14] was 58.2%.

Work on C[C@@H]1CN(c2cc(-c3n[nH]c4ccc(OC5(C)CC5)cc34)ncn2)C[C@H](C)O1 [MLi-2] yielded a residual activity [1, 16] of 100%, a residual activity [2, 16] of 98% and a residual activity [3, 16] of 79%. For the same molecule, the residual activity [4, 16] was 67%, the residual activity [5, 16] was 83% and the residual activity [6, 16] was 84%. It also gave a residual activity [7, 16] of 100%, a residual activity [8, 16] of 69% and a residual activity [9, 16] of 92%. The residual activity [10, 16] was 68%, the residual activity [11, 16] was 85% and the residual activity [12, 16] was 100%. The residual activity [13, 16] was 100% and the inhibition [14] was 35.9%.

From ChEMBL document CHEMBL4507291 (2021)
